ChEMBL document CHEMBL1201862, “PubChem BioAssay data set” (2004)
Calls of active or inactive are those of the source.

What was measured:
[1] = StAR promoter reporter inhibition counter-screen, dose response, counter-screen for LRH-1 inverse agonist project, cell-based, luminescence, luciferase reporter (AID 651969); type: functional
[2] = molecular target: Steroidogenic factor 1 (Homo sapiens, UniProt Q13285); experiment: Counterscreen for inverse agonists of the liver receptor homolog-1 (LRH-1; NR5A2): Luminescence-based cell-based high throughput dose response assay to identify inverse agonists of the Steroidogenic Factor 1 Nuclear Receptor (SF1; NR5A1).; type: functional
Chain of Steroidogenic factor 1 (Q13285 whole entry): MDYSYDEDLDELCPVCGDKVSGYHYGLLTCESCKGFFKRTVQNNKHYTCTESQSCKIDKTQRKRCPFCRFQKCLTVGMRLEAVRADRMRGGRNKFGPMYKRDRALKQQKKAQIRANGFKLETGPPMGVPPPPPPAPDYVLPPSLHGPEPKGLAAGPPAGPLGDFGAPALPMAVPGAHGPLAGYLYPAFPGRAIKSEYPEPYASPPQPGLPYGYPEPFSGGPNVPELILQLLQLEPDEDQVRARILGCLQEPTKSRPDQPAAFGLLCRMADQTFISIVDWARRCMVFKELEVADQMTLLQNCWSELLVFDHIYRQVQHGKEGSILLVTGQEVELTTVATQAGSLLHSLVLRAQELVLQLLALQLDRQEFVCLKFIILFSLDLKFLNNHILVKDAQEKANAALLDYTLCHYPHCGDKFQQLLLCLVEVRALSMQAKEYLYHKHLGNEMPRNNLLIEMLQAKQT

[3] = molecular target: Nuclear receptor subfamily 5 group A member 2 (Homo sapiens, UniProt O00482); type: functional, cell-based;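 further: HEK293T cells transfected with LRH-1 and a StAR promoter luciferase reporter; potency for inhibitors that lower LRH-1 driven reporter light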
Chain of Nuclear receptor subfamily 5 group A member 2 (O00482 whole entry): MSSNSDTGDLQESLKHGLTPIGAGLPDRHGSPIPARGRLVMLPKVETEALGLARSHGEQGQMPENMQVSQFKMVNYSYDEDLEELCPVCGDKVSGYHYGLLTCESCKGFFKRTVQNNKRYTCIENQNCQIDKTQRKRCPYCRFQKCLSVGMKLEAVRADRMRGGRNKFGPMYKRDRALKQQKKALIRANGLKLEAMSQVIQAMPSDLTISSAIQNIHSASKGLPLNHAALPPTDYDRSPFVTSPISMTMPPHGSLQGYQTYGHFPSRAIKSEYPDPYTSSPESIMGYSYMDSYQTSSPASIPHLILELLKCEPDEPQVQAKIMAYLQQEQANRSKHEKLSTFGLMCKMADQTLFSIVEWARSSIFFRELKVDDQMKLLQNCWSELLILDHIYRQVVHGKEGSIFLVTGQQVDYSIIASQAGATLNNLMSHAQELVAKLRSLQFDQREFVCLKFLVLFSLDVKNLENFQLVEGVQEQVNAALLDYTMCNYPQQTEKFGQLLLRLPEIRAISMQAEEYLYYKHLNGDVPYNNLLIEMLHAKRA

[4] = molecular target: T1, High affinity choline transporter 1 (Homo sapiens, UniProt Q9GZV3); experiment: CHT inhibitors, dose response, cell-based, 5-point CRC, membrane potential dye (AID 504840); type: functional
T1 sequence (Q9GZV3 whole entry): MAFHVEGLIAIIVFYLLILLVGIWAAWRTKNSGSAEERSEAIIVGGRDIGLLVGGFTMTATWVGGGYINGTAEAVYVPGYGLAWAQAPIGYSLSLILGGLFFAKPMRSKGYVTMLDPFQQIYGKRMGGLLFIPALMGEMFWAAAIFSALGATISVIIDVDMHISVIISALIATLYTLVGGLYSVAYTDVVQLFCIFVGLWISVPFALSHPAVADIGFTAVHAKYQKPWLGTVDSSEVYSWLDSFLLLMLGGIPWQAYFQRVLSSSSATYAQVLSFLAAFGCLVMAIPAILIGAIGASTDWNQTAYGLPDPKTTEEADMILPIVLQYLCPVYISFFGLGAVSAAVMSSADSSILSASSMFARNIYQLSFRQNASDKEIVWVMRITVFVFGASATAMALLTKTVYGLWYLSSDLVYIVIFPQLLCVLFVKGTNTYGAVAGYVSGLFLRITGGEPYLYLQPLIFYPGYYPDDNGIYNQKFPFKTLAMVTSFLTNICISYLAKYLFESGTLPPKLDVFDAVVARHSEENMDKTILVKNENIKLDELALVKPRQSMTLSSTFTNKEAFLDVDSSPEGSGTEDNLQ

[5] = molecular target: Nonstructural protein 1 (Influenza A virus, UniProt Q194T2); type: functional, Influenza A virus (A/California/07/2009(H1N1))
Chain of Nonstructural protein 1 (Q194T2 whole entry): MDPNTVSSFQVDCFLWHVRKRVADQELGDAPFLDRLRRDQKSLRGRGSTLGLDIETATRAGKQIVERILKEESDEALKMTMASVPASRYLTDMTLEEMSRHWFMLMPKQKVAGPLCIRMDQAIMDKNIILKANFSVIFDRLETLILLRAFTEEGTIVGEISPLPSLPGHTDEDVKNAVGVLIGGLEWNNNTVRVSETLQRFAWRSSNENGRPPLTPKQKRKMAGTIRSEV

[6] = molecular target: T2, Ubiquitin-conjugating enzyme E2 N (Homo sapiens, UniProt P61088); type: functional;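 further: Dose-response confirmation in a TR-FRET assay detecting UBC13-driven polyubiquitin chain formation, inhibition measured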
T2 sequence (P61088 whole entry): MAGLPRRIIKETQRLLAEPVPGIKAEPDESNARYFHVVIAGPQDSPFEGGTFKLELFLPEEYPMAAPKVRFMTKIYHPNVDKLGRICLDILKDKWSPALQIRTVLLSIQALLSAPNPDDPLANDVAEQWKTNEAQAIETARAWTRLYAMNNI

[7] = molecular target: 5-hydroxytryptamine receptor 5A (Homo sapiens, UniProt P47898); experiment: Counterscreen for agonists of OPRM1-OPRD1 heterodimerization: luminescence-based cell-based high throughput dose response assay to identify agonists of 5-hydroxytryptamine (serotonin) 5A receptor (HTR5A). [Related pubchem assays (depositor defined):AID504326, AID504355, AID504692, AID504904, AID504905]; type: functional
Chain of 5-hydroxytryptamine receptor 5A (P47898 whole entry): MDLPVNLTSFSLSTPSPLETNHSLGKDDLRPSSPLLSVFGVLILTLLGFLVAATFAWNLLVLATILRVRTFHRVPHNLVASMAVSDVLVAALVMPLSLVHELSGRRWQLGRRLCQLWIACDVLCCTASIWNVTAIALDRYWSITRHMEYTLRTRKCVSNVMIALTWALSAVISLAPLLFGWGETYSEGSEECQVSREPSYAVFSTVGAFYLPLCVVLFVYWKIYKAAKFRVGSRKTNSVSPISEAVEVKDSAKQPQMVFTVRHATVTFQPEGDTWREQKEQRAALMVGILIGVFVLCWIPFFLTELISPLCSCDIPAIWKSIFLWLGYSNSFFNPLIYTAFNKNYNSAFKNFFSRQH

[8] = molecular target: Delta-type opioid receptor (Homo sapiens, UniProt P41143); experiment: Counterscreen for agonists of heterodimerization of the mu 1 (OPRM1) and delta 1 (OPRD1) opioid receptors: Luminescence-based cell-based high throughput dose response assay to identify agonists of OPRD1 homodimerization. [Related pubchem assays (depositor defined):AID504326, AID504355, AID504692, AID504904, AID504905]; type: functional
Chain of Delta-type opioid receptor (P41143 whole entry): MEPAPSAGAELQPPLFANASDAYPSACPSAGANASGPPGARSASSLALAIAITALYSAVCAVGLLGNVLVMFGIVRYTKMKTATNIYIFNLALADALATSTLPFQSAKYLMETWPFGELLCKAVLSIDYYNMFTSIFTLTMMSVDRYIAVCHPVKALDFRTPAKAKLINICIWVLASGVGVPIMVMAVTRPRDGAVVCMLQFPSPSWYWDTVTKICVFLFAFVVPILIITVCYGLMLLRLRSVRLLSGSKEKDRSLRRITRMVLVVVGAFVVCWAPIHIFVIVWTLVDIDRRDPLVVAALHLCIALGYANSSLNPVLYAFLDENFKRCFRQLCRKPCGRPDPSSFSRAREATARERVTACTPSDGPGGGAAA

[9] = molecular target: T3, Short transient receptor potential channel 4 (Mus musculus, UniProt Q9QUQ5); experiment: mouse TRPC4 channel activators, dose response, cell-based, HEK293 TRPC4/mu-opioid, Fluo-4 calcium (AID 434937); type: functional
T3 sequence (Q9QUQ5 whole entry): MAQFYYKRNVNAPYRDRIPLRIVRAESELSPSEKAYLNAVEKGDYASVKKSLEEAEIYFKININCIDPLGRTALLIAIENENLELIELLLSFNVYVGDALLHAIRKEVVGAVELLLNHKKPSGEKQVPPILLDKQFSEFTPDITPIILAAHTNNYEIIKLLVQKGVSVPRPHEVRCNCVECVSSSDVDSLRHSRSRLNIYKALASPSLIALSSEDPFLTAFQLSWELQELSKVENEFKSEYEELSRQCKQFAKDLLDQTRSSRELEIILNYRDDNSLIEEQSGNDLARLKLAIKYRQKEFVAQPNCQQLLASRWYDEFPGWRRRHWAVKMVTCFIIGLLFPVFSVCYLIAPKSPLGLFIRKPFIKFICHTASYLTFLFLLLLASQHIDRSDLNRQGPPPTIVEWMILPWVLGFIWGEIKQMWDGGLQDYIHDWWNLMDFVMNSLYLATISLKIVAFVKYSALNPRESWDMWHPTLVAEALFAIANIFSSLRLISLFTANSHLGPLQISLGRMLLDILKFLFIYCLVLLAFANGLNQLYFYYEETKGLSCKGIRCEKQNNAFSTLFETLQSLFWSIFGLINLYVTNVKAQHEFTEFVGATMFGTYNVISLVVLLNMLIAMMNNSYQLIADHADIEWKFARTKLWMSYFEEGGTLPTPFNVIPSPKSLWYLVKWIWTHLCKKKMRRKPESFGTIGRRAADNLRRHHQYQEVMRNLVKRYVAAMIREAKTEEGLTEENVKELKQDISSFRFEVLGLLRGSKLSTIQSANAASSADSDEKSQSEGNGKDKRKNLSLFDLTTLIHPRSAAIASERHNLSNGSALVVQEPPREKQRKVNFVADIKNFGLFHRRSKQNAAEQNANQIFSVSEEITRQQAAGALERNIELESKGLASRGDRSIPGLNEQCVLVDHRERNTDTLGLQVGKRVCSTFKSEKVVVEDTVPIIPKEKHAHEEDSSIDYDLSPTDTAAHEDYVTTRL

[10] = molecular target: Mu-type opioid receptor (Homo sapiens, UniProt P35372); experiment: Counterscreen for agonists of heterodimerization of the mu 1 (OPRM1) and delta 1 (OPRD1) opioid receptors: Luminescence-based cell-based high throughput dose response assay to identify agonists of OPRM1 homodimerization.; type: functional;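 further: U2OS cells expressing OPRM1 and beta-arrestin as split beta-galactosidase partners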
Chain of Mu-type opioid receptor (P35372 whole entry): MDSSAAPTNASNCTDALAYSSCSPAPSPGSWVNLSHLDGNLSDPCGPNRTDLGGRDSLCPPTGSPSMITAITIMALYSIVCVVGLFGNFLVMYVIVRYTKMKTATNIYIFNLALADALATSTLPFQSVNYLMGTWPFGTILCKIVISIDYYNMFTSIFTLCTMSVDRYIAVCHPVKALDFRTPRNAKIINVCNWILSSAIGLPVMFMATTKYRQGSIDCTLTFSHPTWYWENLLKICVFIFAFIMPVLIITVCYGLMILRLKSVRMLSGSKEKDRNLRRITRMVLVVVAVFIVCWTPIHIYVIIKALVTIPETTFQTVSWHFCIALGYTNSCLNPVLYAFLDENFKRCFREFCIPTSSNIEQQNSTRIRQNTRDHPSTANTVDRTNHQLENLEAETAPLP

[11] = microbe, parasite or virus in culture; type: functional; details: Mycobacterium tuberculosis

SMILES	IC50 [1]	IC50 [2]	IC50 [3]	IC50 [4]	other results
Cc1ccc(NC(=O)COC(=O)C(NS(=O)(=O)c2ccc(Cl)cc2)C(C)O)c(Br)c1 (configuration not stated)	35.9 µM (inactive)	1.33 µM (active)	35.9 µM (inactive)		
CCCc1cc(=O)oc2c(C)c(OCC(=O)NC3CC(C)(C)NC(C)(C)C3)ccc12	35.9 µM (inactive)	0.443 µM (active)	35.9 µM (inactive)		
Cc1ccc(C(=O)NCC(=O)NCCCc2ccccc2)cc1				16.6 µM (active)	
CCN=C(S)NNC(=O)c1ccccn1					IC50 [5]: 1.55 µM (active); IC50 [6]: > 20 µM (inactive)
Cc1cccc(OCCC(=O)NCC(c2ccccc2)N(C)C)c1 (configuration not stated)					EC50 [7]: > 92.5 µM (inactive); EC50 [8]: > 92.5 µM (inactive); EC50 [9]: 0.473 µM (active); EC50 [10]: > 92.5 µM (inactive)
Cc1nonc1NC(=O)CSc1ccc(-c2ccccc2)nn1				14.5 µM (active)	
CC1SC(C)C(=O)N(CC(=O)Nc2ccc3c(c2)OCO3)C1=O (configuration not stated)	35.9 µM (inactive)	35.9 µM (inactive)	35.9 µM (inactive)		
C=CCc1ccc(O)c(-c2ccc(O)c(CC=C)c2)c1 [HONOKIOL]				12 µM (active)	
COCCN(C(=O)C1CC(=O)N(Cc2ccccc2)C1)c1nc(-c2ccc([N+](=O)[O-])cc2)cs1 (configuration not stated)					EC50 [7]: > 92.5 µM (inactive); EC50 [8]: > 92.5 µM (inactive); CC50 [11]: > 40 µM (active); EC50 [10]: 22.9 µM (inactive)
